Laboratory results reported in patent US6365582B1, “S-substitute 11β-benzaldoxime-estra-4, 9-diene-carbonic acid thiolesters, method for the production thereof and pharmaceutical preparations containing these compounds” (Jenapharm GmbH & Co. KG, priority 1998, dated 2002).

Tests used:
progesterone receptor = molecular target: T1, progesterone receptor (Oryctolagus cuniculus, UniProt P06186); assay: Receptor binding affinity, progesterone receptor (competitive binding, uterus cytosol); settings: Progesterone = 100%; uterus cytosol of estradiol-primed rabbit; tracer 3H-ORG 2058
T1 construct: receptors in the cytosol of animal target organs; from tissue; host or cells: uterus cytosol of the estradiol-primed rabbit
T1 sequence (P06186 1-930): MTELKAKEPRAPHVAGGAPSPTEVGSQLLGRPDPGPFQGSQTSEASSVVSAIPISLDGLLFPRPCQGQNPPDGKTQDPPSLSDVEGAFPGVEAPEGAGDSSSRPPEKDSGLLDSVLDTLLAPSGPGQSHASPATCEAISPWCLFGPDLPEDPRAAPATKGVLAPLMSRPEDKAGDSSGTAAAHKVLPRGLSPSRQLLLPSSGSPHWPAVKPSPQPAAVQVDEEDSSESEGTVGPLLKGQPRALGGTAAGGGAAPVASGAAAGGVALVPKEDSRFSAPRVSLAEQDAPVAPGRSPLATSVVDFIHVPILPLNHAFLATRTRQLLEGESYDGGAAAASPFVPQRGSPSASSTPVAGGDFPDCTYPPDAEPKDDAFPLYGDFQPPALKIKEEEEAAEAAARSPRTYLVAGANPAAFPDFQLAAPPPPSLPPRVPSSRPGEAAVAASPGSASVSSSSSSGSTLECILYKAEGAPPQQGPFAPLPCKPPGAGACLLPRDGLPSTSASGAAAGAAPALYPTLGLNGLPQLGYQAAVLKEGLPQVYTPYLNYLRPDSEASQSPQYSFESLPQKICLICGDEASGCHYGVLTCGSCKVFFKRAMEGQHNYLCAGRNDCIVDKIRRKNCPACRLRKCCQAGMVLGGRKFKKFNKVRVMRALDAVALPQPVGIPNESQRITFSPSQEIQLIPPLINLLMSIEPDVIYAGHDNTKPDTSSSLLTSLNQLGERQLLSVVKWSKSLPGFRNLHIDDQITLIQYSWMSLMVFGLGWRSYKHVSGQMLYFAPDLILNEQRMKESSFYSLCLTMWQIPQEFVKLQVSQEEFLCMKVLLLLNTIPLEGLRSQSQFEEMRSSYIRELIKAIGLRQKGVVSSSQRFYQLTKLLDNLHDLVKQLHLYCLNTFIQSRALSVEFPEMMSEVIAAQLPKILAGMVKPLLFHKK
Experimental: (§1) Measurement of the receptor binding affinity
(§2) The receptor binding affinity was determined by competitive binding of a specifically binding ^3H-labeled hormone (tracer) and the compound to be tested to receptors in the cytosol of animal target organs. Receptor saturation and reaction equilibrium were aimed at here. The following incubation conditions were chosen:
Progesterone receptor Uterus cytosol of the estradiol-primed rabbit, stored at −30° C.
Buffer for homogenization and incubation: TED buffer 20 mM tris/HCl, pH [sic]=7.4; 1 mM ethylenediamine tetracetate, 2 mM dithiothreitol) containing 250 mM sucrose.
Reference substance: progesterone.
(§3) After an incubation of receptor fraction, tracer and competitor for 18 h at 0-4° C., the bound and free steroid were separated by mixing in active carbon/dextran (1%/0.1%), centrifuging off and measuring the receptor-bound ^3H activity in the supernatant.

glucocorticoid receptor = molecular target: T2, glucocorticoid receptor (Rattus norvegicus, UniProt P06536); assay: Receptor binding affinity, glucocorticoid receptor (competitive binding, thymus cytosol); settings: Dexamethasone = 100%; thymus cytosol of adrenalectomized rat; tracer 3H-dexamethasone
T2 construct: receptors in the cytosol of animal target organs; from tissue; host or cells: thymus cytosol of the adrenalectomized rat
T2 sequence (P06536 1-795): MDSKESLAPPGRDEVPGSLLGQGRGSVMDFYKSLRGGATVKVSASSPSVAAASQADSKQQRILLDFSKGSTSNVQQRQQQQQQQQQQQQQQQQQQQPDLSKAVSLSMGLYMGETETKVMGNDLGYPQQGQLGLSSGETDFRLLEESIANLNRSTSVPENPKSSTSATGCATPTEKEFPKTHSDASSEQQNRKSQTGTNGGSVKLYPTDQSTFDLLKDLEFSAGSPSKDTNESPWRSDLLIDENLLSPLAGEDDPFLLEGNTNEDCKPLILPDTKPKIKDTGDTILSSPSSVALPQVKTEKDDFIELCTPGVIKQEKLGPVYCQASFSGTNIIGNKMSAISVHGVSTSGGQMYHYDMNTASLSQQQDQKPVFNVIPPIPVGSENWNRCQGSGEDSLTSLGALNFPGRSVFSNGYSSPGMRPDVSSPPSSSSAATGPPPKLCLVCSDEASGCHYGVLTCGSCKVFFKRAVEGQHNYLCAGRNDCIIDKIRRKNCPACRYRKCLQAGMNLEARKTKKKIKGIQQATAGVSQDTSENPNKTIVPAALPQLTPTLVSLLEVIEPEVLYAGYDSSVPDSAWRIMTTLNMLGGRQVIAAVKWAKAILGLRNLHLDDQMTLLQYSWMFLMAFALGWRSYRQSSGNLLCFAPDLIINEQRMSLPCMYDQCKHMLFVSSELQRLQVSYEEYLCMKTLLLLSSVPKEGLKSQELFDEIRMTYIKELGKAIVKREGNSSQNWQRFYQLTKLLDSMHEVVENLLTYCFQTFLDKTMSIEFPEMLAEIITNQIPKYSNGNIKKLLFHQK
Experimental: as §1, §2
Glucocorticoid receptor: Thymus cytosol of the adrenalectomized rat. Thymi stored at −30° C.
Tracer: ^3H-dexamethasone, 20 nM.
Reference substance: dexamethasone.
as §3

[1] = system: early pregnancy in the rat; assay: Inhibition of early pregnancy in the rat (early abortive action); format: in vivo; settings: s.c., day 5-7 of pregnancy
Experimental: Inhibition of early pregnancy in the rat Female rats weighing 180-200 g were mated in the proestrus stage. On detection of sperm in the vaginal region on the next day, this is set as day 1 (d=1) of the pregnancy. The rats are treated with test substance or vehicle using 0.2 ml of benzoyl benzoate/castor oil (1+4 v/v) subcutaneously from day 5 to day 7 (d5-d7); autopsy is carried oust painlessly on day d9. The uterus horns was [sic] dissected and examined for intact or damaged nidation sites.

pregnancy of guinea pigs = assay: Inhibition of late pregnancy in pregnant guinea pigs (abortive action); format: in vivo; settings: guinea pig; for Complete inhibition of pregnancy % / Complete inhibition of pregnancy N#/N (non-gravid/mated females): s.c., day 43-44 of pregnancy
Experimental: Inhibition of late pregnancy in pregnant guinea pigs
Pregnant guinea pigs are treated with test substances from day 43-44. Experimental animals were […] with the test substance in oily solution (0.2-2.0 ml of benzoyl benzoate/castor oil 1+4 v/v) 1× daily on day 43 and 44. Control animals were treated with vehicle. The pregnancy of the animals was monitored until day 50, in particular, the expulsion of fetuses and placentas was observed and recorded.

Row | Compound | Relative molar binding affinity RBA (%) to the progesterone receptor (progesterone receptor) | Relative molar binding affinity RBA (%) to the glucocorticoid receptor (glucocorticoid receptor) | Complete inhibition of pregnancy % ([1]; 3 mg/(animal × day)) | Complete inhibition of pregnancy N#/N (non-gravid/mated females) ([1]; 3 mg/(animal × day)) | Complete inhibition of pregnancy % ([1]; 1 mg/(animal × day)) | Complete inhibition of pregnancy N#/N (non-gravid/mated females) ([1]; 1 mg/(animal × day)) | also measured
1 | COC[C@@]1(O)CC[C@H]2[C@@H]3CCC4=CC(=O)CCC4=C3[C@@H](c3ccc(/C=N/OC(=O)SC)cc3)C[C@@]21C [Example 2, 4-[17β-Hydroxy-17α-(methoxymethyl)-3-oxoestra-4,9-dien-11β-yl]benzaldehyde 1-(E)-[O-(methylthio)carbonyl]oxime] | 185% | 52% | 0% | 0/4 | – | – | –
2 | CCSC(=O)ON=Cc1ccc(C2CC3(C)C(CCC3(O)CCl)C3CCC4=CC(=O)CCC4=C23)cc1 (stereo not drawn) [Example 6, 4-[17β-Hydroxy-17α-(chloromethyl)-3-oxoestra-4,9-dien-11β-yl]benzaldehyde 1-(E)-[O-(ethylthio)carbonyl]oxime] | 64% | 22% | – | – | – | – | –
3 | CCSC(=O)O/N=C/c1ccc([C@H]2C[C@@]3(C)[C@@H](CC[C@@]3(O)CC#N)[C@@H]3CCC4=CC(=O)CCC4=C32)cc1 [Example 7] | 42% | 2% | 0% | 0/5 | 0% | 0/5 | –
4 | COC[C@]1(OC)CC[C@H]2[C@@H]3CCC4=CC(=O)CCC4=C3[C@@H](c3ccc(/C=N/O)cc3)C[C@@]21C [J 867, 11β-[4-(hydroximinomethyl)phenyl]-17β-methoxy-17α-methoxymethyl-estra-4,9-dien-3-one, reference compound] | 302% | 77% | 100% | 5/5 | 100% | 5/5 | Complete inhibition of pregnancy % ([1]; 0.3 mg/(animal × day)): 0%; Complete inhibition of pregnancy N#/N (non-gravid/mated females) ([1]; 0.3 mg/(animal × day)): 0/5
5 | CCSC(=O)ON=Cc1ccc(C2CC3(C)C(CCC3(O)CN=[N+]=[N-])C3CCC4=CC(=O)CCC4=C23)cc1 (stereo not drawn) [Example 5, 4-[17β-Hydroxy-17α-(azidomethyl)-3-oxoestra-4,9-dien-11β-yl]benzaldehyde-1-(E)-[O-(ethylthio)carbonyl]oxime] | 77% | 20% | – | – | – | – | –
6 | COCC1(OC)CCC2C3CCC4=CC(=O)CCC4=C3C(c3ccc(C=NOC(=O)SC)cc3)CC21C (stereo not drawn) [Example 1, 4-[17β-Methoxy-17α-(methoxymethyl)-3-oxoestra-4,9-dien-11β-yl]benzaldehyde 1-(E)-[O-(methylthio)carbonyl]oxime] | 159% | 49% | – | – | – | – | –
7 | CCSC(=O)ON=Cc1ccc(C2CC3(C)C(CCC3(O)COC)C3CCC4=CC(=O)CCC4=C23)cc1 (stereo not drawn) [Example 4, 4-[17β-Hydroxy-17α-(methoxymethyl)-3-oxoestra-4,9-dien-11β-yl]benzaldehyde 1-(E)-[O-(ethylthio)carbonyl]oxime] | 44% | 53% | – | – | – | – | –
8 | CCSC(=O)O/N=C/c1ccc([C@H]2C[C@@]3(C)[C@@H](CC[C@]3(COC)OC)[C@@H]3CCC4=CC(=O)CCC4=C32)cc1 [Example 3, 4-[17β-Methoxy-17α-(methoxymethyl)-3-oxoestra-4,9-dien-11β-yl]benzaldehyde 1-(E)-[O-(ethylthio)carbonyl]oxime] | 164% | 42% | 0% | 0/5 | 0% | 0/5 | Complete inhibition of pregnancy % ([1]; 10 mg/(animal × day)): 20%; Complete inhibition of pregnancy N#/N (non-gravid/mated females) ([1]; 10 mg/(animal × day)): 1/5; Complete inhibition of pregnancy % (pregnancy of guinea pigs; 10 mg/animal/day): 0%; Complete inhibition of pregnancy N#/N (non-gravid/mated females) (pregnancy of guinea pigs; 10 mg/animal/day): 0/7; Complete inhibition of pregnancy % (pregnancy of guinea pigs; 30 mg/animal/day): 0%; Complete inhibition of pregnancy N#/N (non-gravid/mated females) (pregnancy of guinea pigs; 30 mg/animal/day): 0/7; Complete inhibition of pregnancy % (pregnancy of guinea pigs; 100 mg/animal/day): 0%; Complete inhibition of pregnancy N#/N (non-gravid/mated females) (pregnancy of guinea pigs; 100 mg/animal/day): 0/7; Interference with the pregnancy of guinea pigs (in words) (pregnancy of guinea pigs; very high doses): incapable even at very high doses of interfering with the pregnancy of guinea pigs
9 | CCSC(=O)OC[C@]1(O)CC[C@H]2[C@@H]3CCC4=CC(=O)CCC4=C3[C@@H](c3ccc(/C=N/OC(=O)SCC)cc3)C[C@@]21C [Example 8, 4-{17β-Hydroxy-17α-[(ethylthiocarbonyloxy)methyl]3-oxoestra-4,9-dien-11β-yl]benzaldehyde 1-(E)-[O-(ethylthio)carbonyl]oxime] | 74% | 32% | – | – | – | – | –
